Assay results published in ChEMBL document CHEMBL2440112, “Structure-activity relationships of the aromatic site in novel anticonvulsant pyrrolo[1,2-a]pyrazine derivatives” (Bioorg Med Chem Lett, 2013).
Calls of active or inactive are those of the source. The rule behind the calls is not given here.

Experiments:
Mus musculus [1] = assay: Anticonvulsant activity in ip dosed albino mouse assessed as time of peak effect for protection against 6 Hz psychomotor seizure by minimal clonic seizure test; format: functional
[2] = Neurotoxicity in ip dosed albino mouse minimal clonic seizure model assessed as minimal motor impairment by rotorod test; format: toxicity, organism-based; settings: in vivo
Mus musculus [3] = assay: Anticonvulsant activity in ip dosed albino mouse assessed as protection against 6 Hz psychomotor seizure by minimal clonic seizure test; format: functional
Mus musculus [4] = assay: Anticonvulsant activity in albino mouse assessed as protection against subcutaneous metrazole-induced seizures at 100 mg/kg, ip after 0.5 hrs; format: functional, organism-based; set-up: dose 100 mg/kg
Mus musculus [5] = assay: Anticonvulsant activity in albino mouse assessed as protection against maximal electroshock-induced seizures at 100 mg/kg, ip after 4 hrs; format: functional, organism-based; set-up: dose 100 mg/kg
Mus musculus [6] = assay: Anticonvulsant activity in albino mouse assessed as protection against maximal electroshock-induced seizures at 100 mg/kg, ip after 0.5 hrs; format: functional, organism-based; set-up: dose 100 mg/kg
Mus musculus [7] = assay: Anticonvulsant activity in albino mouse assessed as protection against subcutaneous metrazole-induced seizures at 100 mg/kg, ip after 4 hrs; format: functional, organism-based; set-up: dose 100 mg/kg
Mus musculus [8] = assay: Neurotoxicity in albino mouse assessed as minimal motor impairment at 100 mg/kg, ip after 0.5 hrs by rotorod test; format: toxicity, organism-based; set-up: dose 100 mg/kg, route intraperitoneal; settings: in vivo
Mus musculus [9] = assay: Neurotoxicity in albino mouse assessed as minimal motor impairment at 100 mg/kg, ip after 4 hrs by rotorod test; format: toxicity, organism-based; set-up: dose 100 mg/kg, route intraperitoneal; settings: in vivo
Rattus norvegicus = assay: Anticonvulsant activity in po dosed albino Sprague-Dawley rat assessed as protection against maximal electroshock-induced seizures after […] to 4 hrs; format: functional, organism-based
Mus musculus [10] = assay: Anticonvulsant activity in albino mouse assessed as protection against maximal electroshock-induced seizures at 100 mg/kg, ip after 1 hr; format: functional, organism-based; set-up: dose 100 mg/kg
Mus musculus [11] = assay: Anticonvulsant activity in albino mouse assessed as protection against maximal electroshock-induced seizures at 100 mg/kg, ip after 0.25 hrs; format: functional, organism-based; set-up: dose 100 mg/kg
Mus musculus [12] = assay: Neurotoxicity in albino mouse assessed as minimal motor impairment at 100 mg/kg, ip after 1 hr by rotorod test; format: toxicity, organism-based; set-up: dose 100 mg/kg, route intraperitoneal; settings: in vivo
Mus musculus [13] = assay: Neurotoxicity in albino mouse assessed as minimal motor impairment at 100 mg/kg, ip after 0.25 hrs by rotorod test; format: toxicity, organism-based; set-up: dose 100 mg/kg, route intraperitoneal; settings: in vivo
Mus musculus [14] = assay: Neurotoxicity in albino mouse minimal clonic seizure model assessed as minimal motor impairment at 100 mg/kg, ip after 0.5 hrs by rotorod test; format: toxicity, organism-based; set-up: dose 100 mg/kg, route intraperitoneal; settings: in vivo
Mus musculus [15] = assay: Anticonvulsant activity in albino mouse assessed as protection against subcutaneous metrazole-induced seizures at 100 mg/kg, ip after 0.25 hrs; format: functional, organism-based; set-up: dose 100 mg/kg
Mus musculus [16] = assay: Anticonvulsant activity in albino mouse assessed as protection against 6 Hz psychomotor seizure at 100 mg/kg, ip after 2 hrs by minimal clonic seizure test; format: functional, organism-based; set-up: dose 100 mg/kg
Mus musculus [17] = assay: Neurotoxicity in albino mouse minimal clonic seizure model assessed as minimal motor impairment at 100 mg/kg, ip after 2 hrs by rotorod test; format: toxicity, organism-based; set-up: dose 100 mg/kg, route intraperitoneal; settings: in vivo
Mus musculus [18] = assay: Neurotoxicity in albino mouse minimal clonic seizure model assessed as minimal motor impairment at 100 mg/kg, ip after 4 hrs by rotorod test; format: toxicity, organism-based; set-up: dose 100 mg/kg, route intraperitoneal; settings: in vivo
Mus musculus [19] = assay: Neurotoxicity in albino mouse minimal clonic seizure model assessed as minimal motor impairment at 100 mg/kg, ip after 0.25 hrs by rotorod test; format: toxicity, organism-based; set-up: dose 100 mg/kg, route intraperitoneal; settings: in vivo
Mus musculus [20] = assay: Anticonvulsant activity in albino mouse assessed as protection against 6 Hz psychomotor seizure at 100 mg/kg, ip after 4 hrs by minimal clonic seizure test; format: functional, organism-based; set-up: dose 100 mg/kg
Mus musculus [21] = assay: Anticonvulsant activity in albino mouse assessed as protection against 6 Hz psychomotor seizure at 100 mg/kg, ip after 0.5 hrs by minimal clonic seizure test; format: functional, organism-based; set-up: dose 100 mg/kg
Mus musculus [22] = assay: Anticonvulsant activity in albino mouse assessed as protection against 6 Hz psychomotor seizure at 100 mg/kg, ip after 0.25 hrs by minimal clonic seizure test; format: functional, organism-based; set-up: dose 100 mg/kg
Mus musculus [23] = assay: Anticonvulsant activity in albino mouse assessed as protection against subcutaneous metrazole-induced seizures at 100 mg/kg, ip after 1 hr; format: functional, organism-based; set-up: dose 100 mg/kg
Mus musculus [24] = assay: Neurotoxicity in albino mouse minimal clonic seizure model assessed as minimal motor impairment at 100 mg/kg, ip after 1 hr by rotorod test; format: toxicity, organism-based; set-up: dose 100 mg/kg, route intraperitoneal; settings: in vivo
Mus musculus [25] = assay: Anticonvulsant activity in albino mouse assessed as protection against 6 Hz psychomotor seizure at 100 mg/kg, ip after 1 hr by minimal clonic seizure test; format: functional, organism-based; set-up: dose 100 mg/kg
Mus musculus [26] = assay: Anticonvulsant activity in albino mouse assessed as protection against subcutaneous metrazole-induced seizures at 300 mg/kg, ip after 0.5 hrs; format: functional, organism-based; set-up: dose 300 mg/kg

Row | SMILES | Activity (Mus musculus [4]) | Activity (Mus musculus [5]) | Activity (Mus musculus [6]) | Activity (Mus musculus [7]) | Activity (Mus musculus [8]) | Activity (Mus musculus [9]) | Activity (Rattus norvegicus) | Activity (Mus musculus [10]) | Activity (Mus musculus [11]) | Activity (Mus musculus [12]) | Activity (Mus musculus [13]) | other results
1 | CC[C@@H](C(N)=O)N1CCCC1=O |  |  |  |  |  |  |  |  |  |  |  | Time (Mus musculus [1]): 1 h; TD50 [2]: > 500 mg/kg
2 | O=C1NC(=O)C(c2ccccc2)(c2ccccc2)N1 [PHENYTOIN] |  |  |  |  |  |  |  |  |  |  |  | ED50 (Mus musculus [3]): > 60 mg/kg
3 | O=C1NC(=O)[C@@H]2CCCN2[C@H]1c1ccoc1 | inactive | inactive | inactive | inactive | Non-toxic | Non-toxic | inactive |  |  |  |  | 
4 | COc1ccc([C@H]2C(=O)NC(=O)[C@@H]3CCCN23)cc1 | inactive | inactive | inactive | inactive | Non-toxic | Non-toxic | inactive | inactive | inactive | Non-toxic | Non-toxic | 
5 | O=C1NC(=O)[C@@H]2CCCN2[C@H]1c1cc(Cl)cc(Cl)c1 | inactive | Active | Active | inactive | Non-toxic | Non-toxic | inactive | Active | Active | Non-toxic | Non-toxic | Activity (Mus musculus [14]): Non-toxic; Activity (Mus musculus [15]): inactive; Activity (Mus musculus [16]): inactive; Activity (Mus musculus [17]): Non-toxic; Activity (Mus musculus [18]): Non-toxic; Activity (Mus musculus [19]): Non-toxic; Activity (Mus musculus [20]): inactive; Activity (Mus musculus [21]): Active; Activity (Mus musculus [22]): Active; Activity (Mus musculus [23]): inactive; Activity (Mus musculus [24]): Non-toxic; Activity (Mus musculus [25]): inactive
6 | COc1ccccc1[C@H]1C(=O)NC(=O)[C@@H]2CCCN12 | inactive | inactive | inactive | inactive | Non-toxic | Non-toxic | inactive | inactive | inactive | Non-toxic | Non-toxic | Activity (Mus musculus [14]): Non-toxic; Activity (Mus musculus [16]): inactive; Activity (Mus musculus [17]): Non-toxic; Activity (Mus musculus [18]): Non-toxic; Activity (Mus musculus [19]): Non-toxic; Activity (Mus musculus [20]): inactive; Activity (Mus musculus [21]): Active; Activity (Mus musculus [22]): Active; Activity (Mus musculus [24]): Non-toxic; Activity (Mus musculus [25]): Active
7 | Cl.O=C1NC(=O)[C@@H]2CCCN2[C@H]1c1ccccc1Cl | inactive | inactive | inactive | inactive | Non-toxic | Non-toxic | inactive | inactive | inactive | Non-toxic | Non-toxic | Activity (Mus musculus [26]): Active
8 | CCC1(C)CC(=O)NC1=O (stereo not drawn) [ETHOSUXIMIDE] |  |  |  |  |  |  |  |  |  |  |  | Time (Mus musculus [1]): 0.25 h
